ChEMBL document CHEMBL1697781, “Assessment of the health effects of chemicals in humans: II. Construction of an adverse effects database for QSAR modeling” (Curr Drug Discov Technol, 2004)

What was measured:
Details in all cases: human; call rule not given here
Hepatotoxicity [1] = experiment: FDA HLAED, liver enzyme composite activity
Hepatotoxicity [2] = experiment: FDA HLAED, alkaline phosphatase increase
Hepatotoxicity [3] = experiment: FDA HLAED, serum glutamic oxaloacetic transaminase (SGOT) increase
Hepatotoxicity [4] = experiment: FDA HLAED, serum glutamic pyruvic transaminase (SGPT) increase
Hepatotoxicity [5] = experiment: FDA HLAED, lactate dehydrogenase (LDH) increase
Hepatotoxicity [6] = experiment: FDA HLAED, gamma-glutamyl transferase (GGT) increase
Throughout, for GGT Increase - Index Value: reference of the scale not given here.
Throughout, for LDH Increase - Index Value: reference of the scale not given here.

SMILES | Alkaline Phosphatase Increase - Activity Score (Hepatotoxicity [2]) | Alkaline Phosphatase Increase - Index Value (Hepatotoxicity [2]) | Alkaline Phosphatase Increase - Number of Reports (Hepatotoxicity [2]) | SGOT Increase - Activity Score (Hepatotoxicity [3]) | SGOT Increase - Index Value (Hepatotoxicity [3]) | SGOT Increase - Number of Reports (Hepatotoxicity [3]) | SGPT Increase - Activity Score (Hepatotoxicity [4]) | SGPT Increase - Index Value (Hepatotoxicity [4]) | SGPT Increase - Number of Reports (Hepatotoxicity [4]) | LDH Increase - Activity Score (Hepatotoxicity [5]) | LDH Increase - Index Value (Hepatotoxicity [5]) | LDH Increase - Number of Reports (Hepatotoxicity [5]) | GGT Increase - Activity Score (Hepatotoxicity [6]) | GGT Increase - Index Value (Hepatotoxicity [6]) | GGT Increase - Number of Reports (Hepatotoxicity [6]) | Composite Activity - Active (Hepatotoxicity [1]) | Composite Activity - Marginal (Hepatotoxicity [1]) | Composite Activity - Score (Hepatotoxicity [1]) | also measured
Clc1ccc(CSC(Cn2ccnc2)c2ccc(Cl)cc2Cl)cc1 (stereo unspecified) [SULCONAZOLE] | Inactive | 0 | < 4 | Inactive | 0 | < 4 | Inactive | 0 | < 4 | Inactive | 0 | < 4 | Inactive | 0 | < 4 |  |  |  | Composite Activity - Active (Hepatotoxicity [1]; Liver): 0; Composite Activity - Marginal (Hepatotoxicity [1]; Liver): 0; Composite Activity - Score (Hepatotoxicity [1]; Liver): Inactive
CC(C(=O)O)c1ccc(C(=O)c2cccs2)cc1 (stereo unspecified) [SUPROFEN] | Inactive | 6.1 | < 4 | Inactive | 6.1 | < 4 | Inactive | 0 | < 4 | Inactive | 0 | < 4 | Inactive | 0 | < 4 | 0 | 0 | Inactive | 
Nc1c2c(nc3ccccc13)CCCC2 [TACRINE] | Active | 14.1 | >= 4 | Active | 58.1 | >= 4 | Active | 170 | >= 4 | Active | 19 | >= 4 | Active | 17.4 | >= 4 |  |  |  | Composite Activity - Active (Hepatotoxicity [1]; Liver): 5; Composite Activity - Marginal (Hepatotoxicity [1]; Liver): 0; Composite Activity - Score (Hepatotoxicity [1]; Liver): Active
CCOC(=O)c1ccc(C#Cc2ccc3c(c2)C(C)(C)CCS3)nc1 [TAZAROTENE] | Inactive | 0 | < 4 | Inactive | 0 | < 4 | Inactive | 0 | < 4 | Inactive | 0 | < 4 | Inactive | 0 | < 4 | 0 | 0 | Inactive | 
COc1cc([C@@H]2c3cc4c(cc3[C@@H](O[C@@H]3O[C@@H]5CO[C@@H](c6cccs6)O[C@H]5[C@H](O)[C@H]3O)[C@H]3COC(=O)[C@H]23)OCO4)cc(OC)c1O [TENIPOSIDE] | Inactive | 0 | < 4 | Inactive | 0 | < 4 | Inactive | 0 | < 4 | Inactive | 0 | < 4 | Inactive | 0 | < 4 | 0 | 0 | Inactive | 
COc1cc2nc(N3CCN(C(=O)C4CCCO4)CC3)nc(N)c2cc1OC (stereo unspecified) [TERAZOSIN] | Inactive | 0.5 | < 4 | Inactive | 1.6 | >= 4 | Inactive | 1.3 | >= 4 | Inactive | 0.5 | < 4 | Inactive | 0.8 | < 4 | 0 | 0 | Inactive | 
CN(C/C=C/C#CC(C)(C)C)Cc1cccc2ccccc12 [TERBINAFINE] | Inactive | 1.1 | >= 4 | Marginally Active | 3.1 | >= 4 | Inactive | 2.8 | >= 4 | Inactive | 1.1 | >= 4 | Inactive | 2.6 | >= 4 | 0 | 1 | Inactive | 
CC(C)N1CCN(c2ccc(OCC3COC(Cn4cncn4)(c4ccc(Cl)cc4Cl)O3)cc2)CC1 (stereo unspecified) [TERCONAZOLE] | Inactive | 0 | < 4 | Inactive | 0 | < 4 | Inactive | 0 | < 4 | Inactive | 0 | < 4 | Inactive | 0 | < 4 | 0 | 0 | Inactive | 
CC(C)(C)c1ccc(C(O)CCCN2CCC(C(O)(c3ccccc3)c3ccccc3)CC2)cc1 (stereo unspecified) [TERFENADINE] | Inactive | 0.6 | >= 4 | Inactive | 0.7 | >= 4 | Inactive | 0.7 | >= 4 | Inactive | 0.2 | < 4 | Inactive | 0.1 | < 4 | 0 | 0 | Inactive | 
C[C@]12CC[C@H]3[C@@H](CCC4=CC(=O)CC[C@@]43C)[C@@H]1CC[C@@H]2OC(=O)CCC1CCCC1 [TESTOSTERONE CYPIONATE] | Inactive | 0 | < 4 | Inactive | 4.8 | < 4 | Inactive | 7.2 | < 4 | Inactive | 2.4 | < 4 | Inactive | 4.8 | < 4 | 0 | 0 | Inactive | 
CCCCCCC(=O)O[C@H]1CC[C@H]2[C@@H]3CCC4=CC(=O)CC[C@]4(C)[C@H]3CC[C@]12C [TESTOSTERONE ENANTHATE] | Inactive | 0 | < 4 | Inactive | 4.8 | < 4 | Inactive | 7.2 | < 4 | Inactive | 2.4 | < 4 | Inactive | 4.8 | < 4 | 0 | 0 | Inactive | 
CCCCCCCCCC(=O)CC(=O)O[C@H]1CC[C@H]2[C@@H]3CCC4=CC(=O)CC[C@]4(C)[C@H]3CC[C@]12C [TESTOSTERONE KETOLAURATE] | Inactive | 0 | < 4 | Inactive | 4.8 | < 4 | Inactive | 7.2 | < 4 | Inactive | 2.4 | < 4 | Inactive | 4.8 | < 4 | 0 | 0 | Inactive | 
